# Assays:
# [1] = system: retinal neurons (RGCs) and glia (Müller cells); test: Hypotonic stimuli: cell swelling (change in cell area) and [Ca++]i; type: cell-based; details: osmolarity lowered from 300 mOsm to 190 mOsm
# Source text: FIG. 18A illustrates the effect of hypotonic stimuli on cell swelling as measured by change in cell area. Hypotonic stimuli were generated by replacing extracellular sodium levels to lower osmolarity from 300 mOsm to 190 mOsm.
# [2] = system: MB model of glaucoma; test: IOP time course after a single eye drop in the MB model of glaucoma; type: in vivo, mouse
# Description: Specifically, microbeads (MBs) were injected into the anterior chamber of a mouse eye as described in Example 2 with PBS-injected eyes used as controls. Compound 1 (10 mg/kg body weight) (or PBS vehicle) was injected intraperitoneally (IP). […] IOP was measured in mice between 10:00 AM and 1:00 PM with the TonoLab rebound tonometer (Colonial Medical Supply, Franconia, NH/Tyolat, Helsinki, Finland). Mice were sedated with IP injection of Avertin with final amount calculated by weight (e.g., 0.5 ml for 21-24 g animals). Animals were placed on a jack stand platform and the tonolab was clamped on a ring stand and centered onto the mid-cornea. During measurements animal were neither restrained nor touched. Each eye was measured twenty consecutive times, the highest and lowest values were discarded and the values were averaged.
# FIG. 9 illustrates the short-term effects of a single dose of Compound 1 (eye drop) in the MB model of glaucoma. IOP was measured as described in Example 3 at the indicated time points after receiving a drop of Compound 1. Compound 1 reduced IOP beginning at 1 hour after dosing and continued through 6 hours after dosing.
# FIG. 10 illustrates a time course of Compounds 1, 2, 5 and Compound 2-HCl as well as a positive control compound, timolol, with regard to inhibition of IOP. The experiment was conducted as described in Example 9. Each of the TRPV4 antagonists reduced IOP with a similar time course. Specifically, Compounds 1, 2, 5 and Compound 2-HCl reduced IOP for at least 6 hours after dosing.
# FIG. 11 illustrates a time course of Compound 2-HCl activity. The experiment was conducted as described in Example 9. […] 2
# FIG. 12 illustrates a comparison of the time course of Compound 2-HCl and Compound 5. The experiment was conducted as described in Example 9.
# [3] = molecular target: T1, TRPV4 (Homo sapiens, UniProt Q9HBA0); test: Calcium imaging (fura-2) in human trabecular meshwork cells; type: cell-based; details: bath application 100 nM, human TM cells, room temperature
# T1 construct: endogenous in cells; host or cells: primary human trabecular meshwork cells from trabeculectomy tissue
# Description: Pieces of tissue were isolated from a trabeculectomy. Trabecular meshwork cells (TM) were kept in cold L15 medium and then loaded with Fura-2 (10 μm) for 1 hour. Fibroblast-shaped cells were imaged from a TM chunk (˜500 μm×500 μm) with a 40× water immersion objective. The sampling rate was at 6 second intervals. Krebs Ringer Bicarbonate Recording buffer (7.4, 284 mOsm) was prepared as reported by Anthony et al., 1998, IOVS; Prostaglandin F2α receptors in the human trabecular meshwork.
# Calcium imaging was performed on TM cells isolated from human patients. In brief, dissociated human TM cells embedded within the tissue were dissociated and plated on concanavalin A-coated (0.2 mg/ml; Sigma) coverslips, loaded with fura-2 AM ([…]; Invitrogen Life Technologies) for 15 min-1 hour and washed for 10 min in dye-free L-15 medium. […] Fluorescence emission was high-pass filtered at 510 nm and captured with cooled digital CCD cameras (HQ2, Photometrics). […] Fluorescence imaging was performed on regions of interest (ROIs) encompassing the TM cell somata, typically at 3×3 binning. Background fluorescence was measured in similarly sized ROIs in neighboring areas devoid of cells. After sequential image acquisition (0.167-0.5 Hz) of cell fluorescence at 340/380 nm, the background was subtracted. […]
# [4] = system: retinal ganglion cells; test: In vivo intraocular injection of TRPV4 agonist GSK, NeuN+ RGC count; details: 100-300 nM injected intraocularly, retinas isolated after 48 hours
# Description: In this experiment, GSK (100-300 nM) was injected intraocularly with a Hamilton syringe. Retinas were isolated after 48 hours, fixed and labeled with the RGC marker antibody NeuN. NeuN-immunopositive somata in the ganglion cell layer, shown in the panel on the right, were counted. The bar graph represents quantification of NeuN^+ cells in the indicated experimental groups.
# [5] = system: retinal ganglion cells; test: TUNEL assay of apoptotic cell death in retina; type: cell-based
# Description: Terminal deoxynucleotidyl transferase-mediated dUTP-biotin nick end labeling (TUNEL) is a common method for detecting fragmentation that results from apoptotic signaling cascades. Retinas were embedded, cryosectioned, and processed for the TUNEL assay following the protocol by Gavrieli et al. (1992). After 30 min. rehydration in 70% ethanol, 2×5 min. rinses in PBS and 1% Triton-X in 1% citrate buffer (pH 7.3), the slides were subjected to a final rinse in PBS. Slides were then incubated for 30 min. in the reaction buffer (30 mM Trizma-HCl, 140 mM Na^+ cacodylate, 1.0 mM CaCl2, 0.2% Triton X-100, pH 7.2). Positive controls were treated with DNAse I (Roche Diagnostics; Branford, Conn.; 10 U/ml) in the reaction buffer. Next, slides were treated for 1 hour with 0.03 units/pi terminal transferase and 4 μM biotin-16-dUTP (Roche Diagnostics). The reaction was terminated in 30 mM Na+ citrate, 300 mM NaCl and 0.2% Triton X-100 in PBS (5 min.) and rinsed in PBS (2×5 min), exposed to 1% bovine serum albumin in PBS for 20 min and rinsed. Apoptotic cells were visualized with a confocal microscope (Zeiss LSM510) and categorized by size. […] This was blocked by RuR and by the TRPV4 antagonist Compound 1.
# [6] = molecular target: T2, TRPV4 (Mus musculus, UniProt Q9EPK8); test: TRPV4 agonist GSK-evoked [Ca++]i in retinal Müller glial cells; type: cell-based; set-up: endogenous in cells; host or cells: retinal Müller glial cells
# [7] = molecular target: T2, TRPV4; test: AGB cation influx into retinal cells (anti-AGB antibody); type: cell-based; set-up: these two cell types express TRPV4 channels in the mouse retina; from tissue; host or cells: mouse retina; details: mouse retina
# Description: FIG. 16 illustrates the effect of the TRPV4 agonist GSK on cation influx into mouse retinal cells of the mouse retina. The influx was determined using the anti-AGB antibody, as described by Marc RE (J Comp Neurol 407(1): 47-64, 1999). AGB is a membrane permeant cation that can flow through most known cation channels. Using an anti-AGB antibody, it can be determined where the cation flux occurs and, therefore, which cells are activated.
# [8] = system: Müller cells; test: Arachidonic acid-induced [Ca2+]i in Müller cells; type: cell-based; details: 10 μM, Müller cells
# Description: This response is blocked by Compound 1 (1 μM).
# T2 sequence (Q9EPK8 whole entry): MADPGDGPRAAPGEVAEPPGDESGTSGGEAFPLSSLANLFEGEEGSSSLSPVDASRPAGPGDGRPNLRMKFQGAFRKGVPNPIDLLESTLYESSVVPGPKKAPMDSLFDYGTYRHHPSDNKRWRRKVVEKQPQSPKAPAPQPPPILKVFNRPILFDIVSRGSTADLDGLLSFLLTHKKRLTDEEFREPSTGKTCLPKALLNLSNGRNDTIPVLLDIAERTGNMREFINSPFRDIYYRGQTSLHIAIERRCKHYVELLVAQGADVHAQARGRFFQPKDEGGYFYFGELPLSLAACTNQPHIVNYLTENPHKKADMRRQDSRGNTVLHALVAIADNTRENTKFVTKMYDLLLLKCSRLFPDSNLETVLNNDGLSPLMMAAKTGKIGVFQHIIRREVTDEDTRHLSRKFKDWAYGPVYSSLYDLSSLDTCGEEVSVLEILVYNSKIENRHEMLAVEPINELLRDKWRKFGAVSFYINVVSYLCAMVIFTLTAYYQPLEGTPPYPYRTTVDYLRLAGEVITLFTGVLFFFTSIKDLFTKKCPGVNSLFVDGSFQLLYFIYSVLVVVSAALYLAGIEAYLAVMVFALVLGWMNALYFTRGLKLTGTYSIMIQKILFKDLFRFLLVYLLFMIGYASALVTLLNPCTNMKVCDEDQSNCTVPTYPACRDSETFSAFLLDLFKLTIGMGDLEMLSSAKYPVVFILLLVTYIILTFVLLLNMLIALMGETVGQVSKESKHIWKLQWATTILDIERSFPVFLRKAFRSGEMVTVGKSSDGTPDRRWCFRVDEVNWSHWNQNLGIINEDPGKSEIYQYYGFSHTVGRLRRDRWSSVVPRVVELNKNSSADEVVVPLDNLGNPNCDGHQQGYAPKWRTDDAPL
# T1 sequence (Q9HBA0 whole entry): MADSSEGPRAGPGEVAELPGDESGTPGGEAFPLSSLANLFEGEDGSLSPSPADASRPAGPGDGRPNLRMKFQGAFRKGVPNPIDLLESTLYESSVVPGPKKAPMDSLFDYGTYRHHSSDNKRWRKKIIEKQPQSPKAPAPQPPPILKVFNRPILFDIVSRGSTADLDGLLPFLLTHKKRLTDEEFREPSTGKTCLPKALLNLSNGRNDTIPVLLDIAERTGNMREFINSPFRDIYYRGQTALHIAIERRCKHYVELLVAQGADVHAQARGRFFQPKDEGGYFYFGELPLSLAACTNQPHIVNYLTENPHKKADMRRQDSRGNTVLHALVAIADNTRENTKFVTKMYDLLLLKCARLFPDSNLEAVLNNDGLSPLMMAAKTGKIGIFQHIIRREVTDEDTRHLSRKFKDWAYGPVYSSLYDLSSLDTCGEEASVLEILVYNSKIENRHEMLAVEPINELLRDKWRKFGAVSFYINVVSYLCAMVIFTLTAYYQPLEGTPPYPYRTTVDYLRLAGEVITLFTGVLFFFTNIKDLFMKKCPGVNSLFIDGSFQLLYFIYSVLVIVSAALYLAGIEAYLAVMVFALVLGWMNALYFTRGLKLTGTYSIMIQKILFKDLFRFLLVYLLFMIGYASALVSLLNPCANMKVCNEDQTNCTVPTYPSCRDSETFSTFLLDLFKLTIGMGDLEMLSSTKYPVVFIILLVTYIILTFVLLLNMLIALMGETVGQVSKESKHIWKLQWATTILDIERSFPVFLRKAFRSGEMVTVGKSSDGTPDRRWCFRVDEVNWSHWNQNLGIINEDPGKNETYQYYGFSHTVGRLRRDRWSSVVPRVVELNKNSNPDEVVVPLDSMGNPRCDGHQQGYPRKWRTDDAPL
structure (smiles),measurement,setting,value
"CC(=O)OCOC(=O)CN(CC(=O)OCOC(C)=O)c1ccccc1OCCOc1ccccc1N(CC(=O)OCOC(C)=O)CC(=O)OCOC(C)=O [BAPTA-AM, reference compound]",cell swelling (change in cell area),[1],significantly reduced
"Cc1c(C(=O)Nc2cccc(C(=O)OC(C)C)c2)cc(-c2ccccc2)n1CCCN1CCOCC1.Cl [Compound 2-HCl, iso-propyl 3-(2-methyl-1-(3-morpholinopropyl)-5-phenyl-1H-pyrrole-3-carboxamido)benzoate hydrochloride]",time of maximal inhibition of IOP after dosing,[2]; single dose eye drop,6 h
same,time until IOP reached pre-dose levels,"[2]; single dose eye drop, post-dosing",33 h
"CC(C)C[C@H](NC(=O)c1cc2ccccc2s1)C(=O)N1CCN(C(=O)[C@H](CO)NS(=O)(=O)c2ccc(Cl)cc2Cl)CC1 [GSK1016790A, reference compound]",340/380 fluorescence ratio (intracellular calcium concentration [Ca++]i),[3],increased 340/380 fluorescence ratio
same,"number of retinal ganglion cells (NeuN+ somata), agonist effect",[4],substantially reduces the number of retinal ganglion cells
same,"death of retinal ganglion cells (increased TUNEL staining), agonist effect",[5]; 100 nM,induced death of retinal ganglion cells
same,"intracellular calcium concentration [Ca++]i, agonist effect",[6],evokes sustained increases in intracellular calcium concentration
same,"number of AGB+ cells (cation influx), agonist effect",[7],increased the number of AGB^+ retinal ganglion cells and Müller glial cells
N.N.N.N.N.N.N.N.N.N.N.N.N.N.[Cl-].[Cl-].[Cl-].[Cl-].[Cl-].[Cl-].[O-2].[O-2].[Ru+3].[Ru+3].[Ru+4] [Ruthenium Red],apoptotic cell death (TUNEL) induced by hypotonic swelling,"[5]; 190 mOsm saline, Compound 1 1 uM, RuR 10 μM",block apoptotic cell death
same,apoptotic cell death (TUNEL) induced by the TRPV4 agonist GSK,"[5]; GSK 100 nM, Compound 1 1 uM, RuR 10 μM",block apoptotic cell death
"CCCCC/C=C\C/C=C\C/C=C\C/C=C\CCCC(=O)O [arachidonic acid, reference compound]",[Ca2+]i response,[8],increase in [Ca2+]i
"CC(C)(C)NC[C@H](O)COc1nsnc1N1CCOCC1 [timolol, reference compound]","inhibition of IOP, curve relative to the exemplary TRPV4 antagonists","[2]; positive control, eye drop",left-shifted dose-response curve
